US7883708B2, “Substance derived from basidiomycetes culture, method for producing it and its use” (Amino Up Chemical Co., Ltd., priority 1999, dated 2011)
Values after ≈ are worked out from the molar mass of the structure shown.

Experiments:
Assay in all cases: 50% growth suppression concentration (IC50) of tumor cells (MTT)
Type in all cases: cell-based
[1] = test system: LNCAP human prostatic cells; conditions: 48 hours, read-out: IC50 (μg/ml) LNCaP
From the text: (§1) 3LL mouse lung cancer cells, Colon 26 mouse colorectal cancer cells, PC3 human prostatic cancer cells, Du145 human prostatic cells, and LNCAP human prostatic cells were used and 50% suppression concentrations (IC50) of Invention Substance 1, genistein standard preparation (produced by Sigma) and basidiomycetes culture (product obtained by cultivating basidiomycetes in the absence of isoflavones-containing material under the same conditions as in Example 1) on these cells were examined.
(§2) That is, Invention Substance 1, genistein standard preparation or basidiomycetes culture was suspended in distilled water and were autoclaved and added to the cells in a continuously varied concentration of from 1,000 μg/ml to 0.1 μg/ml. The tumor cell suspension was adjusted to 1-2×10^5 cells/well with DMEM medium containing 10% FBS and cultivated at 37° C. for 48 hours. Then, after addition of Invention Substance 1 or genistein standard preparation, the cells were further cultivated for additional 48 hours, followed by examining cell growth by the MTT method using a microplate reader. Lower numerical values indicate that 50% suppression of the growth of cultured cancer cells is possible at lower concentrations.

[2] = test system: Du145 human prostatic cells; conditions: DU-145, 48 hours, read-out: IC50 (μg/ml) Du145
From the text: as §1, §2

[3] = test system: 3LL mouse lung cancer cells; conditions: 48 hours, read-out: IC50 (μg/ml) 3LL
From the text: as §1, §2

[4] = test system: PC3 human prostatic cancer cells; conditions: 48 hours, read-out: IC50 (μg/ml) PC3
From the text: as §1, §2

[5] = test system: Colon 26 mouse colorectal cancer cells; conditions: 48 hours, read-out: IC50 (μg/ml) Colon 26
From the text: as §1, §2

- IC50 [1]: 69.4 µg/mL (≈ 257 µM)
- IC50 [2]: 55.3 µg/mL (≈ 205 µM)
- IC50 [3]: 31.8 µg/mL (≈ 118 µM)
- IC50 [4]: 35.8 µg/mL (≈ 132 µM)
- IC50 [5]: 51.2 µg/mL (≈ 190 µM)
Structure (SMILES): O=c1c(-c2ccc(O)cc2)coc2cc(O)cc(O)c12 [Genistein standard preparation, genistein]
